Results published in US12178878B2, “Amyloid peptide scaffolds coordinate with Alzheimer's disease drugs” (The University of Massachusetts, priority 2018, dated 2024).
Where two headings read alike, the source gives them in different places.

Tests used:
[1] = system: […] (SEQ ID NO: 4) amyloid peptide; test: Incubation of amyloid gel containing inhibitor in PBS at 37° C., drug retained; assay type: binding; conditions: YFTGAIIGNFY 5 mg/mL; for AD compound captured after incubation, Wash 2: 2nd pellet wash; for AD compound captured after incubation, Wash 3: 3rd pellet wash
Experimental: Incubation of Amyloid Gels-Containing Inhibitors in PBS at 37° C. […] (SEQ ID NO: 4) amyloid gels were prepared at 10 mg/mL (1 mL) and a 0.1 M PBS solution of Donepezil was added at 1000 μM (1 mL) and was left to stir overnight (the final peptide concentration was diluted to 5 mg/mL). A control of 1 mL 0.1 M PBS was also prepared. The complexed amyloid/inhibitor was sequentially centrifuged, and the same volume of water (2 mL) was added in the pellet to wash it (followed by vortexing until obtaining a complete dispersion) and remove the unbound inhibitor (wash 1). The sample was centrifuged, the pellet was isolated, and 2 mL of 0.1 M PBS was added, followed by overnight incubation under stirring at 37° C. The inhibitor-containing peptide was then pelletized, the supernatant was decanted, and the peptide/inhibitor dispersion was quantified after addition of 2 mL water (wash 2). A second washing step with 2 mL fresh water was subsequently realized and the pellet was quantified again (wash 3). Example 2: Coordination of the Designed Amyloid Peptides with AD drugs in Dilute Solution.

[2] = system: […] (SEQ ID NO: 4) amyloid peptide; assay type: binding; conditions: for AD compound captured, Wash 1 / AD compound captured, Wash 2 / AD compound captured, Wash 3: 150 μM inhibitor loaded; for AD compound captured, Wash 1: 1st pellet wash; for AD compound captured, Wash 2: 2nd pellet wash; for AD compound captured, Wash 3: 3rd pellet wash; for fraction of the 150 μM loaded drug incorporated into the peptide: UV-Vis, first wash
Experimental: Amyloid Peptide/Inhibitor Coordination Studies in Dilute Solutions. […]. As a negative control, 1 mL of 0.1 M PBS buffer was added. The mixtures were vortexed and sonicated to homogenously disperse any solid aggregates and stirred overnight to allow for coordination. The mixtures were transferred to 2 mL Eppendorf tubes and centrifuged for 15 mins at 4,400 rpm (14° C.) to pelletize the amyloid bound-inhibitors, and the supernatant was decanted. Subsequently, 1 mL of DI water was added to wash the pellet (followed by vortexing until obtaining a homogenous dispersion) in order to remove any unbound inhibitor. The samples were then centrifuged again at the same conditions so as to pelletize the amyloid materials, and the supernatant was decanted. Another 1 mL of DI water was then added into the pellet, the mixture was vortexed, and the physically bound inhibitor into the dilute amyloid peptide dispersions was quantified by UV-Vis between 200-600 nm and MS. This step is denoted as wash 1 in our study. Two additional pellet purification cycles were realized with replacement of the decanted volume each time with 1 mL of fresh DI water (denoted as wash 2 and wash 3 respectively). The inhibitor-containing peptides amyloids were normalized at 400 nm over the respective no inhibitor-containing amyloid peptides at the specific washing step, and the measured inhibitor peak values (at 315 nm and 323 nm) were subtracted from that of the amyloid peptide carriers at the same wavelength and concentration. The amount of inhibitors coordinated with the amyloid peptide carriers was quantified based on a calibration curve by both UV-Vis and MS.
. The peak at 315 nm was selected for inhibitor quantification due the absence of peaks at that range for both peptides. […]. However, the peak at 315 nm was selected for inhibitor quantification, and the following equation was used for both peptides: A315=A315 ([…]/Donepezil)−A315 ([…])
[…]. The peak at 323 nm was used for inhibitor quantification due the absence of peaks at that range for both peptides. […].

[3] = incubated at 37° C. in PBS for one day after wash 1, by MS
[4] = incubated at 37° C. in PBS for one day after wash 1, by UV-Vis

Row | Compound | AD compound captured after incubation, Wash 2 [1, 3] [µM] | AD compound captured after incubation, Wash 3 [1, 3] [µM] | AD compound captured after incubation, Wash 2 [1, 4] [µM] | AD compound captured after incubation, Wash 3 [1, 4] [µM] | AD compound captured, Wash 1 ([2]; YFTGAIIGNFY 1 mg/mL, by MS) [µM] | AD compound captured, Wash 2 ([2]; YFTGAIIGNFY 1 mg/mL, by MS) [µM] | AD compound captured, Wash 3 ([2]; YFTGAIIGNFY 1 mg/mL, by MS) [µM] | AD compound captured, Wash 1 ([2]; YFTGAIIGNFY 1 mg/mL, by UV-Vis) [µM] | AD compound captured, Wash 1 ([2]; YFTGAIIGNFY 1 mg/mL, by UV-Vis, listed as Donepezil) [µM] | AD compound captured, Wash 2 ([2]; YFTGAIIGNFY 1 mg/mL, by UV-Vis) [µM] | AD compound captured, Wash 3 ([2]; YFTGAIIGNFY 1 mg/mL, by UV-Vis) [µM] | fraction of the 150 μM loaded drug incorporated into the peptide ([2]; YFTGAIIGNFY 1 mg/mL) | AD compound captured, Wash 1 ([2]; […] 1 mg/mL, by MS) [µM] | AD compound captured, Wash 2 ([2]; […] 1 mg/mL, by MS) [µM] | AD compound captured, Wash 3 ([2]; […] 1 mg/mL, by MS) [µM] | AD compound captured, Wash 1 ([2]; […] 1 mg/mL, by UV-Vis) [µM] | AD compound captured, Wash 1 ([2]; […] 1 mg/mL, by UV-Vis, listed as Tacrine) [µM] | AD compound captured, Wash 2 ([2]; […] 1 mg/mL, by UV-Vis) [µM] | AD compound captured, Wash 3 ([2]; […] 1 mg/mL, by UV-Vis) [µM] | fraction of the 150 μM loaded drug incorporated into the peptide ([2]; […] 1 mg/mL)
1 | COc1cc2c(cc1OC)C(=O)C(CC1CCN(Cc3ccccc3)CC1)C2 (centres unmarked) [donepezil] | 128 ± 12 | 120 ± 18 | 121 ± 25 | 110 ± 31 | 43 ± 6 | 32 ± 4 | 21 ± 9 | 38 | 38 ± 4 | 24 ± 4 | 5 ± 4 | approximately ¼ | – | – | – | – | – | – | – | –
2 | Nc1c2c(nc3ccccc13)CCCC2 [tacrine] | – | – | – | – | – | – | – | – | – | – | – | – | 37 ± 2 | 2 ± 2 | 0 | 26 | 26 ± 2 | 14 ± 2 | 3 ± 2 | approximately ⅕
